Results published in ChEMBL document CHEMBL3046561, “Feeding deterrents from Dictamnus dasycarpus Turcz against two stored-product insects” (J Agric Food Chem, 2002).

Columns and labels:
Sitophilus zeamais [1] = test: Antifeedant activity against adult of Sitophilus zeamais assessed as relative consumption rate at 10 ppm after 3 days relative to control; format: functional
Sitophilus zeamais [2] = test: Antifeedant activity against adult of Sitophilus zeamais assessed as efficiency of conversion of ingested food at 10 ppm after 3 days relative to control; format: functional
Sitophilus zeamais [3] = test: Antifeedant activity against adult of Sitophilus zeamais assessed as feeding deterrence index at 10 ppm after 3 days relative to control; format: functional
Tribolium castaneum [4] = test: Antifeedant activity against larvae of Tribolium castaneum (red flour beetle) assessed as feeding deterrence index at 100 ppm after 3 days relative to control; format: functional
Sitophilus zeamais [5] = test: Antifeedant activity against adult of Sitophilus zeamais assessed as relative growth rate at 100 ppm after 3 days relative to control; format: functional
Tribolium castaneum [6] = test: Antifeedant activity against adult of Tribolium castaneum (red flour beetle) assessed as relative consumption rate at 3 ppm after 3 days relative to control; format: functional
Tribolium castaneum [7] = test: Antifeedant activity against larvae of Tribolium castaneum (red flour beetle) assessed as mortality at 30 ppm after 3 days relative to control; format: functional; details: 72 h
Tribolium castaneum [8] = test: Antifeedant activity against larvae of Tribolium castaneum (red flour beetle) assessed as relative consumption rate at 10 ppm after 3 days relative to control; format: functional
Tribolium castaneum [9] = test: Antifeedant activity against adult of Tribolium castaneum (red flour beetle) assessed as feeding deterrence index at 30 ppm after 3 days relative to control; format: functional
Tribolium castaneum [10] = test: Antifeedant activity against larvae of Tribolium castaneum (red flour beetle) assessed as efficiency of conversion of ingested food at 30 ppm after 3 days relative to control; format: functional, Instar larval stage
Sitophilus zeamais [11] = test: Antifeedant activity against adult of Sitophilus zeamais assessed as feeding deterrence index at 100 ppm after 3 days relative to control; format: functional
Tribolium castaneum [12] = test: Antifeedant activity against larvae of Tribolium castaneum (red flour beetle) assessed as efficiency of conversion of ingested food at 300 ppm after 3 days relative to control; details: Instar larval stage, 72 h
Tribolium castaneum [13] = test: Antifeedant activity against adult of Tribolium castaneum (red flour beetle) assessed as relative consumption rate at 300 ppm after 3 days relative to control; format: functional
Tribolium castaneum [14] = test: Antifeedant activity against larvae of Tribolium castaneum (red flour beetle) assessed as mortality at 10 ppm after 3 days relative to control; format: functional; details: 72 h
Tribolium castaneum [15] = test: Antifeedant activity against larvae of Tribolium castaneum (red flour beetle) assessed as feeding deterrence index at 10 ppm after 3 days relative to control; format: functional
Sitophilus zeamais [16] = test: Antifeedant activity against adult of Sitophilus zeamais assessed as feeding deterrence index at 300 ppm after 3 days relative to control; format: functional
Tribolium castaneum [17] = test: Antifeedant activity against larvae of Tribolium castaneum (red flour beetle) assessed as efficiency of conversion of ingested food at 100 ppm after 3 days relative to control; format: functional, Instar larval stage
Tribolium castaneum [18] = test: Antifeedant activity against larvae of Tribolium castaneum (red flour beetle) assessed as feeding deterrence index at 3 ppm after 3 days relative to control; format: functional
Tribolium castaneum [19] = test: Antifeedant activity against larvae of Tribolium castaneum (red flour beetle) assessed as efficiency of conversion of ingested food at 3 ppm after 3 days relative to control; format: functional
Sitophilus zeamais [20] = test: Antifeedant activity against adult of Sitophilus zeamais assessed as efficiency of conversion of ingested food at 30 ppm after 3 days relative to control; format: functional
Tribolium castaneum [21] = test: Antifeedant activity against adult of Tribolium castaneum (red flour beetle) assessed as efficiency of conversion of ingested food at 30 ppm after 3 days relative to control; format: functional
Tribolium castaneum [22] = test: Antifeedant activity against larvae of Tribolium castaneum (red flour beetle) assessed as relative consumption rate at 100 ppm after 3 days relative to control; format: functional
Tribolium castaneum [23] = test: Antifeedant activity against adult of Tribolium castaneum (red flour beetle) assessed as feeding deterrence index at 300 ppm after 3 days relative to control; format: functional
Tribolium castaneum [24] = test: Antifeedant activity against larvae of Tribolium castaneum (red flour beetle) assessed as feeding deterrence index at 300 ppm after 3 days relative to control; format: functional
Tribolium castaneum [25] = test: Antifeedant activity against adult of Tribolium castaneum (red flour beetle) assessed as feeding deterrence index at 3 ppm after 3 days relative to control; format: functional
Tribolium castaneum [26] = test: Antifeedant activity against adult of Tribolium castaneum (red flour beetle) assessed as relative growth rate at 30 ppm after 3 days relative to control; format: functional
Tribolium castaneum [27] = test: Antifeedant activity against larvae of Tribolium castaneum (red flour beetle) assessed as relative growth rate at 100 ppm after 3 days relative to control; format: functional
Tribolium castaneum [28] = test: Antifeedant activity against adult of Tribolium castaneum (red flour beetle) after 3 days; format: functional, organism-based
Sitophilus zeamais [29] = test: Antifeedant activity against adult of Sitophilus zeamais after 3 days; format: functional, organism-based
Tribolium castaneum [30] = test: Antifeedant activity against larvae of Tribolium castaneum (red flour beetle) after 3 days; format: functional, organism-based

COc1c2ccccc2nc2occc12 [DICTAMNINE]
Activity (Sitophilus zeamais [1]): 110.95 µg/mg/day | Activity (Sitophilus zeamais [2]): 10.42% | FDI (Sitophilus zeamais [3]): 17.87% | FDI (Tribolium castaneum [4]): 64.42% | Activity (Sitophilus zeamais [5]): 9.49 µg/mg/day | Activity (Tribolium castaneum [6]): 132.89 µg/mg/day | mortality at 30 ppm (Tribolium castaneum [7]): 0% | Activity (Tribolium castaneum [8]): 213.17 µg/mg/day | FDI (Tribolium castaneum [9]): 32.38% | Activity (Tribolium castaneum [10]): 20.53% | FDI (Sitophilus zeamais [11]): 51.77% | mortality at 300 ppm (Tribolium castaneum [12]): 13.2% | Activity (Tribolium castaneum [13]): 22.21 µg/mg/day | mortality at 10 ppm (Tribolium castaneum [14]): 0% | FDI (Tribolium castaneum [15]): 21.77% | FDI (Sitophilus zeamais [16]): 68.04% | Activity (Tribolium castaneum [17]): 17.43% | FDI (Tribolium castaneum [18]): 4.59% | Activity (Tribolium castaneum [19]): 19.8% | Activity (Sitophilus zeamais [20]): 9.78% | Activity (Tribolium castaneum [21]): 18.35% | Activity (Tribolium castaneum [22]): 123.74 µg/mg/day | FDI (Tribolium castaneum [23]): 81.24% | FDI (Tribolium castaneum [24]): 82.21% | FDI (Tribolium castaneum [25]): 7.31%

CC1=C2C(=O)O[C@@H](c3ccoc3)[C@]2(C)CCC1 [FRAXINELLONE]
Activity (Sitophilus zeamais [1]): 120.27 µg/mg/day | Activity (Sitophilus zeamais [2]): 11.25% | FDI (Sitophilus zeamais [3]): 15.68% | FDI (Tribolium castaneum [4]): 72.76% | Activity (Tribolium castaneum [26]): 19.84 µg/mg/day | Activity (Sitophilus zeamais [5]): 7.05 µg/mg/day | Activity (Tribolium castaneum [6]): 140.68 µg/mg/day | mortality at 30 ppm (Tribolium castaneum [7]): 0% | Activity (Tribolium castaneum [27]): 11.71 µg/mg/day | Activity (Tribolium castaneum [8]): 198.13 µg/mg/day | FDI (Tribolium castaneum [9]): 40.07% | Activity (Tribolium castaneum [10]): 17.81% | FDI (Sitophilus zeamais [11]): 54.09% | Activity (Tribolium castaneum [13]): 7.39 µg/mg/day | mortality at 10 ppm (Tribolium castaneum [14]): 0% | EC50 (Tribolium castaneum [28]): 36.4 ppm | FDI (Tribolium castaneum [15]): 24.45% | FDI (Sitophilus zeamais [16]): 77.77% | Activity (Tribolium castaneum [17]): 13.65% | FDI (Tribolium castaneum [18]): 11.65% | Activity (Tribolium castaneum [19]): 22.62% | Activity (Sitophilus zeamais [20]): 9.57% | EC50 (Sitophilus zeamais [29]): 71.2 ppm | Activity (Tribolium castaneum [21]): 19.1% | EC50 (Tribolium castaneum [30]): 29.1 ppm | Activity (Tribolium castaneum [22]): 127.99 µg/mg/day | FDI (Tribolium castaneum [23]): 95.05% | FDI (Tribolium castaneum [24]): 95.68% | FDI (Tribolium castaneum [25]): 8.46%
